Test results as given in patent US20220408756A1, “POULTRY FEED AND DRINKING WATER COMPOSITION COMPRISING MONOMETHYLSILANETRIOL” (RXW Group nv, priority 2019, published 2022).

Key:
[1] = test system: broiler chicken; experiment: Bone composition measurements (tibia); format: in vivo; conditions: for Bone ash / Bone calcium content / Bone copper content / Bone dry matter / Bone phosphorus content / Bone zinc content: D41; for Bone manganese content: D41, values below detection limit (<5) set to 2.5
Experimental: (§1) A study was conducted to investigate the effect of silicium supplementation in drinking water of broiler chicken on their performance, locomotive system, skin healing and bone formation. Silicium was supplemented in 2 treatment groups. A third group was used as control and not treated with silicium. Silicium-monomethylsilanetriol (Si-MMST) was administrated at 2 different concentrations. More specific, Si-MMST was added to drinking water at 0.3 mg/l and 1.48 mg/l. These refer to the final silicium concentrations as measured by ICP-AES. Birds were moreover reared on humidified bedding material to simulate bad housing conditions and induce mild locomotive and skin complications. During the study, performance was assessed by weighing birds and monitoring feed intake on specific time points, separating the study in a starter, grower and finisher period. Additionally, mobility of the birds was assessed at the end of the grower (D33) and finisher period (D41) by means of gait scoring (Kestin et al., 1992). At the end of the trial (D41), footpad and chest lesions, femur head necrosis and tibia dyschondroplasy were assessed by qualified veterinarians, which also isolated 1 tibia per bird for bone strength and composition analysis. The main results of this study are summarizes in table 1.
(§2) On D41, one tibia of each bird was collected for analysis. Initially, we selected 2 birds in each pen (first 2 numbers/pen) to obtain 50 samples for analysis of bone weight, fracture force (N), maximum force (N), stiffness (N/mm), bone dry matter (%), bone ash (%), phosphorus content (%), calcium content (%), copper content (mg/kg), manganese content (mg/kg) and zinc content (mg/kg). The results of bone strength measurement per treatment group are presented in table 9 and analysis on bone composition is represented in table 10.

[2] = test system: broiler chicken; experiment: Feed consumption and feed conversion; format: in vivo
Experimental: as §1
The total feed weight was measured per pen when switching between feed compositions. The feed weight (“Feed IN”) was measured and recorded on D0, D14, D33 and D41. Two pens during grower period and all pens during finisher period were supplemented with extra feed to enable at libitum feeding. This extra feed was also weighed and recorded as “Feed IN”. The remaining feed in each pen (“Feed OUT”) was weighed and recorded on D14, D33 and D41. The feed intake (=difference in feed weight at beginning and the end of the experimental period) was calculated for each group per study period. The average daily feed intake (DFI) was calculated for the experimental period using the feed intake data by using following formula: […]
The Feed Conversion Ratio (FCR) was calculated for each of the above mentioned study periods, using following formula: […]

[3] = test system: broiler chicken; experiment: Footpad and chest lesion scores; format: in vivo; set-up: Footpad lesion score (mean) / Chest lesion score (mean): scale not given here; conditions: D41
Experimental: as §1
More specific, the average footpad lesion score decreased from 1.31 in the UC to 0.9 in the 0.3 mg/l Si-MMS treatment group.

[4] = Stability in water; format: physicochemical
Experimental: This organosilicon compound is highly bioavailable. […] MMST can advantageously be used without stabilizers in silicon equivalent concentrations up to 300 mg/l. The stability of MMST is dependent on concentration and declines at higher concentrations. The stability can be enhanced by the use of stabilizing agents.

[5] = test system: broiler chicken; experiment: Bone strength measurement (tibia); format: in vivo; conditions: D41
Experimental: as §1, §2

[6] = test system: broiler chicken; experiment: Animal body weight and daily weight gain, broiler study with silicium in drinking water; format: in vivo; conditions: for BW D0 (LSM): day 0; for BW D14 (LSM): day 14; for BW D33 (LSM): day 33
Experimental: as §1, with “More specific, Si-MMST was added to drinking water at 0.3 mg/l and 1.48 mg/l.” left out
Average daily weight gain (DWG) for example in starter period (D0-D14) was calculated, using following formula: […]
Similar formula was used to calculate the DWG for all the experimental periods. Table 2 and 3 respectively show the body weight (BW) and daily weight gain (DWG) for the different time points or experimental periods.

[7] = test system: broiler chicken; experiment: Femur head necrosis and tibia dyschondroplasy scores; format: in vivo; set-up: Femur head necrosis score (mean): scale not given here; conditions: D41; for Tibia dyschondroplasy score (mean) / Tibia dyschondroplasy, number of birds with score 0 / Tibia dyschondroplasy, number of birds with score 1 / Tibia dyschondroplasy, number of birds with score 2: unilateral, scale 0 to 2
Experimental: as §1
As 1 of the 2 tibia needs to be isolated unimpaired, tibia dyschondroplasy could only be scored unilateral. Therefore the tibia dyschondroplasy scoring ranges from 0 to 2 instead of 0 to 5.
On D41, all birds were scored for femur head necrosis and tibia dyschondroplasy as described in table 8. No significant differences could be observed between the UC and silicium treated groups based on femur head necrosis and tibia dyschondroplasy.

[8] = test system: broiler chicken; experiment: Gait scoring (Kestin et al., 1992); format: in vivo; conditions: day 33
Experimental: as §1, with “The main results of this study are summarizes in table 1.” left out
On D33 and D41, mobility of the birds was evaluated individually by using the gait scoring chart as described by Kestin et al., 1992. […]

[9] = 0.3 mg/l Si-MMST in drinking water
[10] = 1.48 mg/l Si-MMST in drinking water

Question: Which results are given for `C[Si](O)(O)O` [Si-MMST, monomethylsilanetriol]?
Answer: Bone ash [1, 9]: 22.6%; Bone calcium content [1, 9]: 35.3%; Bone copper content [1, 9]: 3.3 mg/kg; Bone dry matter [1, 9]: 49.0%; Bone phosphorus content [1, 9]: 17.8%; Bone zinc content [1, 9]: 326.9 mg/kg; Bone manganese content [1, 9]: 7.4 mg/kg; Bone ash [1, 10]: 22.9%; Bone calcium content [1, 10]: 35.1%; Bone copper content [1, 10]: 3.2 mg/kg; Bone dry matter [1, 10]: 49.1%; Bone phosphorus content [1, 10]: 17.6%; Bone zinc content [1, 10]: 340.3 mg/kg; Bone manganese content [1, 10]: 8.2 mg/kg; DFI D0-14 (mean) [2, 9]: 24.9 g; FCR D0-14 (mean) [2, 9]: 1.0; DFI D0-41 (mean) [2, 9]: 117.4 g; FCR D0-41 (mean) [2, 9]: 1.9; DFI D14-33 (mean) [2, 9]: 141.2 g; FCR D14-33 (mean) [2, 9]: 2.0; DFI D33-41 (mean) [2, 9]: 207.0 g; FCR D33-41 (mean) [2, 9]: 1.9; DFI D0-14 (mean) [2, 10]: 25.0 g; FCR D0-14 (mean) [2, 10]: 1.0; DFI D0-41 (mean) [2, 10]: 114.4 g; FCR D0-41 (mean) [2, 10]: 1.8; DFI D14-33 (mean) [2, 10]: 132.7 g; FCR D14-33 (mean) [2, 10]: 1.7; DFI D33-41 (mean) [2, 10]: 218.5 g; FCR D33-41 (mean) [2, 10]: 2.1; daily feed intake versus control ([2]; MMST supplemented treatment groups, all study periods and D0-D41): higher than the control; Chest lesion score (mean) [3, 9]: 0.02; Chest lesion, number of birds with score 0 [3, 9]: 48; Chest lesion, number of birds with score 1 [3, 9]: 1; Footpad lesion score (mean) [3, 9]: 0.9; Footpad lesion, number of birds with score 0 [3, 9]: 19; Footpad lesion, number of birds with score 1 [3, 9]: 16; Footpad lesion, number of birds with score 2 [3, 9]: 14; Chest lesion score (mean) [3, 10]: 0.00; Chest lesion, number of birds with score 0 [3, 10]: 45; Chest lesion, number of birds with score 1 [3, 10]: 0; Footpad lesion score (mean) [3, 10]: 1.04; Footpad lesion, number of birds with score 0 [3, 10]: 8; Footpad lesion, number of birds with score 1 [3, 10]: 27; Footpad lesion, number of birds with score 2 [3, 10]: 10; silicon equivalent concentration usable without stabilizers ([4]; in water, without stabilizers): up to 300 mg/l; stability in water ([4]; low concentrations): sufficiently stable; Bone weight (mean) [5, 9]: 12.3 g; Fracture force (mean) [5, 9]: 360.7 N; Maximum force (mean) [5, 9]: 372.5 N; Stiffness (mean) [5, 9]: 148.8 N/mm; Bone weight (mean) [5, 10]: 13.2 g; Fracture force (mean) [5, 10]: 400.6 N; Maximum force (mean) [5, 10]: 409.6 N; Stiffness (mean) [5, 10]: 164.3 N/mm; BW D0 (LSM) ([6]; 0.3 mg/l Si-MMST in drinking water (Si-MMST 1)): 48 g; DWG D0-14 (LSM) [6, 9]: 25.6 g; DWG D0-41 (LSM) ([6]; 0.3 mg/l Si-MMST in drinking water, D0-41): 63.1 g; DWG D14-33 (LSM) [6, 9]: 70.6 g; DWG D33-41 (LSM) [6, 9]: 111.1 g; BW D14 (LSM) [6, 9]: 407 g; BW D33 (LSM) [6, 9]: 1748 g; BW D41 (LSM) ([6]; 0.3 mg/l Si-MMST in drinking water, day 41): 2636 g; DWG over the complete study period (D0-D41) versus control ([6]; 1.433 mg/l Si-MMST in drinking water, D0-D41): significantly increased; body weight on day 41 versus control ([6]; 1.433 mg/l Si-MMST in drinking water, day 41): significantly increased; BW D0 (LSM) ([6]; 1.48 mg/l Si-MMST in drinking water (Si-MMST 2)): 48 g; DWG D0-14 (LSM) [6, 10]: 25.8 g; DWG D14-33 (LSM) [6, 10]: 77.6 g; DWG D33-41 (LSM) [6, 10]: 111.1 g; BW D14 (LSM) [6, 10]: 410 g; BW D33 (LSM) [6, 10]: 1883 g; BW on day 41 ([6]; 1.48 mg/l Si-MMST in drinking water, day 41, UC 2.622 kg): 2.775 kg; Femur head necrosis score (mean) [7, 9]: 1.29; Femur head necrosis, number of birds with score 0 [7, 9]: 10; Femur head necrosis, number of birds with score 1 [7, 9]: 15; Femur head necrosis, number of birds with score 2 [7, 9]: 24; Femur head necrosis, number of birds with score 3 [7, 9]: 0; Femur head necrosis, number of birds with score 5 [7, 9]: 0; Tibia dyschondroplasy score (mean) [7, 9]: 0.10; Tibia dyschondroplasy, number of birds with score 0 [7, 9]: 44; Tibia dyschondroplasy, number of birds with score 1 [7, 9]: 5; Tibia dyschondroplasy, number of birds with score 2 [7, 9]: 0; Femur head necrosis score (mean) [7, 10]: 1.2; Femur head necrosis, number of birds with score 0 [7, 10]: 15; Femur head necrosis, number of birds with score 1 [7, 10]: 7; Femur head necrosis, number of birds with score 2 [7, 10]: 22; Femur head necrosis, number of birds with score 3 [7, 10]: 1; Femur head necrosis, number of birds with score 5 [7, 10]: 0; Tibia dyschondroplasy score (mean) [7, 10]: 0.09; Tibia dyschondroplasy, number of birds with score 0 [7, 10]: 41; Tibia dyschondroplasy, number of birds with score 1 [7, 10]: 4; Tibia dyschondroplasy, number of birds with score 2 [7, 10]: 0; Gait score D33 (mean) [8, 9]: 0.26; Gait score D33 (mean) [8, 10]: 0.27
